Measured values from ChEMBL document CHEMBL2417543, “Potential neuroprotective flavonoid-based inhibitors of CDK5/p25 from Rhus parviflora” (Bioorg Med Chem Lett, 2013).

Legend:
Assay type in all cases: protein-complex assay
[1] = molecular target: T1, Cyclin-dependent kinase 5/CDK5 activator 1 (Homo sapiens, UniProt Q00535); assay: Inhibition of CDK5/p25 (unknown origin) after 30 mins by SDS-PAGE analysis
[2] = molecular target: T2, Cyclin-dependent kinase 5/CDK5 activator 1 (Homo sapiens) (UniProt Q00535+Q15078); assay: Inhibition of CDK5/p25 (unknown origin)-mediated incorporation of gamma33P into substrate assessed as change in enzyme activity at 50 uM after 20 mins by scintillation counting analysis in presence of 33P-ATP relative to negative control; parameters: scale not given: the % may be the effect or the level left
[3] = molecular target: T2, Cyclin-dependent kinase 5/CDK5 activator 1 (Homo sapiens); assay: Inhibition of CDK5/p25 (unknown origin)-mediated incorporation of gamma33P into substrate assessed as change in enzyme activity at 5 uM after 20 mins by scintillation counting analysis in presence of 33P-ATP relative to negative control; parameters: scale not given: the % may be the effect or the level left
[4] = molecular target: T2, Cyclin-dependent kinase 5/CDK5 activator 1 (Homo sapiens); assay: Inhibition of CDK5/p25 (unknown origin)-mediated incorporation of gamma33P into substrate assessed as change in enzyme activity at 0.5 uM after 20 mins by scintillation counting analysis in presence of 33P-ATP relative to negative control; parameters: scale not given: the % may be the effect or the level left
[5] = molecular target: T2, Cyclin-dependent kinase 5/CDK5 activator 1 (Homo sapiens); assay: Inhibition of CDK5/p25 (unknown origin)-mediated incorporation of gamma33P into substrate assessed as change in enzyme activity at 0.05 uM after 20 mins by scintillation counting analysis in presence of 33P-ATP relative to negative control; parameters: scale not given: the % may be the effect or the level left
[6] = molecular target: T2, Cyclin-dependent kinase 5/CDK5 activator 1 (Homo sapiens); assay: Inhibition of CDK5/p25 (unknown origin)-mediated incorporation of gamma33P into substrate assessed as change in enzyme activity at 0.005 uM after 20 mins by scintillation counting analysis in presence of 33P-ATP relative to negative control; parameters: scale not given: the % may be the effect or the level left
[7] = molecular target: T1, Cyclin-dependent kinase 5/CDK5 activator 1; assay: Inhibition of CDK5/p25 (unknown origin)-mediated incorporation of gamma33P into substrate after 20 mins by scintillation counting analysis in presence of 33P-ATP

T2 sequence (Q00535 whole entry): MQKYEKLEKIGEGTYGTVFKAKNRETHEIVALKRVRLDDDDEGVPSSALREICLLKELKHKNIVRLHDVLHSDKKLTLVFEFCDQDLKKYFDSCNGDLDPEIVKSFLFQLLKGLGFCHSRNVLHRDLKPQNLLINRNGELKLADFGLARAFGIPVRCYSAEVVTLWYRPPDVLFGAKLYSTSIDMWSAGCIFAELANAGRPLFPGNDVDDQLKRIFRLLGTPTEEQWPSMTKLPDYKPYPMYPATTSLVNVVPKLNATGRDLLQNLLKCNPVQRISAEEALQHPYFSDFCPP
T2 sequence (Q15078 99-307 partner limits assumed): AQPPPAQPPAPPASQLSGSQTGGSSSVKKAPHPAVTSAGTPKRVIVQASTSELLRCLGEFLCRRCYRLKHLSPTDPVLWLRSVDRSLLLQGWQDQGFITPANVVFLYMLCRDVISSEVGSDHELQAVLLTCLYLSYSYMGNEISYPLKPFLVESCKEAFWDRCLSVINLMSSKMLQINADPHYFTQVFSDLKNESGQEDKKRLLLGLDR
T1 sequence (Q00535 whole entry): as the sequence (Q00535 whole entry) above
T1 sequence (Q15078 whole entry, further chain): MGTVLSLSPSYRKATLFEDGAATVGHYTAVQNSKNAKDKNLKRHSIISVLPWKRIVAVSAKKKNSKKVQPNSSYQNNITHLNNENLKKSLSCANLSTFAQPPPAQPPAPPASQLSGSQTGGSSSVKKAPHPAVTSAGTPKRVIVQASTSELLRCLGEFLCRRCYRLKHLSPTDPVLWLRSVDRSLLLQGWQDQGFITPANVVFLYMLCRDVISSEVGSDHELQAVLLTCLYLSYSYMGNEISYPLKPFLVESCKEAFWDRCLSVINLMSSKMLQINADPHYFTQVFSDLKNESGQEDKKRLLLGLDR

O=c1c(O[C@@H]2O[C@H](CO)[C@H](O)[C@H](O)[C@H]2O)c(-c2ccc(O)c(O)c2)oc2cc(O)cc(O)c12 [HYPEROSIDE]
IC50 [1]: 10.3 µM

O=C1/C(=C/c2ccc(O)c(O)c2)Oc2cc(O)ccc21 [SULFURETIN]
IC50 [1]: 37 µM

O=C1/C(=C/c2ccc(O)c(O)c2)Oc2cc(O)cc(O)c21 [AUREUSIDIN]
Activity [2]: -88%
Activity [3]: -47%
Activity [4]: -20%
Activity [5]: -2%
Activity [6]: 0%
IC50 [7]: 4.81 µM
IC50 [1]: 3.5 µM

O=C1c2c(O[C@@H]3O[C@H](CO)[C@@H](O)[C@H](O)[C@H]3O)cc(O)cc2OC1(O)Cc1ccc(O)cc1 (some centres undefined)
Activity [2]: -15%
Activity [3]: -7%
Activity [4]: 2%
Activity [5]: 1%
Activity [6]: -3%
IC50 [7]: > 50 µM
IC50 [1]: 44.4 µM

O=c1cc(-c2ccc(O)cc2)oc2c(-c3c(O)cc(O)c4c(=O)cc(-c5ccc(O)cc5)oc34)c(O)cc(O)c12 [CUPRESSUFLAVONE]
IC50 [1]: 9.29 µM

O=C1/C(=C/c2ccc(O)c(O)c2)Oc2cc(O[C@@H]3O[C@H](CO)[C@@H](O)[C@H](O)[C@H]3O)cc(O)c21
Activity [2]: -65%
Activity [3]: -20%
Activity [4]: -5%
Activity [5]: -4%
Activity [6]: -2%
IC50 [7]: 24.3 µM
IC50 [1]: 22.3 µM
